Source: patent US9932341B2, “Use of pyrazolopyrimidine derivatives for the treatment of PI3K-delta related disorders” (Incyte Corporation, priority 2013, dated 2018)
Where a name gives a salt, the structure may show the parent alone.

Each molecule was assayed against PI3Kδ (p110δ/p85α) (Homo sapiens (Human), UniProt O00329) (assay: PI3Kδ Scintillation Proximity Assay (Example A3)). Conditions: 20 μM ATP, 20 μM PIP2, 4 nM PI3Kδ, read-out: PI3Kδ SPA IC50.
Sequence of PI3Kδ (p110δ/p85α) (O00329 whole entry): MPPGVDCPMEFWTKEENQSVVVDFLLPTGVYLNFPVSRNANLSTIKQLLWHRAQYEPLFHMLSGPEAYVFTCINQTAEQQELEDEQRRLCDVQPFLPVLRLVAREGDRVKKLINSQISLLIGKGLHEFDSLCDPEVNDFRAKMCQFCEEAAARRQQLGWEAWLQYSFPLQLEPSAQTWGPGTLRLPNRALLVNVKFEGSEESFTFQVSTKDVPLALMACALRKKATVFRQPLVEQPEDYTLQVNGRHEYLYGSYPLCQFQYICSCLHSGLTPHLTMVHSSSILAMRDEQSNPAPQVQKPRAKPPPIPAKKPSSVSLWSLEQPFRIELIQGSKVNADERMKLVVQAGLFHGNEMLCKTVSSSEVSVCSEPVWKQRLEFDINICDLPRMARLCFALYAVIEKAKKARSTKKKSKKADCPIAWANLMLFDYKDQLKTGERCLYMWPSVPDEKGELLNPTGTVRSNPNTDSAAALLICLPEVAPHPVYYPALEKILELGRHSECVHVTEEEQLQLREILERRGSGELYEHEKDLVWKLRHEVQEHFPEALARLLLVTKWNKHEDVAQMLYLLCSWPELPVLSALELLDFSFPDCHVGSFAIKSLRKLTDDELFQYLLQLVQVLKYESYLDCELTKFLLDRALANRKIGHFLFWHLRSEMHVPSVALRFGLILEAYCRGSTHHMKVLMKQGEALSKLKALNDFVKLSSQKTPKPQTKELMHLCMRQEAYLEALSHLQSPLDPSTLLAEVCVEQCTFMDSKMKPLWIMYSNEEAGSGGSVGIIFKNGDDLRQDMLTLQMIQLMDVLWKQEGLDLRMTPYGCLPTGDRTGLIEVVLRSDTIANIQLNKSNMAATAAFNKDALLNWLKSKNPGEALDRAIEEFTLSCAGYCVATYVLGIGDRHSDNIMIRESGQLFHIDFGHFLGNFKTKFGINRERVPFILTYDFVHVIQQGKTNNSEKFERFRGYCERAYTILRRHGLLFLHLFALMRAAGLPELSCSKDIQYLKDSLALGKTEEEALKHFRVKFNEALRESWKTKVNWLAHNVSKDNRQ
Sequence of PI3Kδ (p110δ/p85α) (P27986 whole entry partner): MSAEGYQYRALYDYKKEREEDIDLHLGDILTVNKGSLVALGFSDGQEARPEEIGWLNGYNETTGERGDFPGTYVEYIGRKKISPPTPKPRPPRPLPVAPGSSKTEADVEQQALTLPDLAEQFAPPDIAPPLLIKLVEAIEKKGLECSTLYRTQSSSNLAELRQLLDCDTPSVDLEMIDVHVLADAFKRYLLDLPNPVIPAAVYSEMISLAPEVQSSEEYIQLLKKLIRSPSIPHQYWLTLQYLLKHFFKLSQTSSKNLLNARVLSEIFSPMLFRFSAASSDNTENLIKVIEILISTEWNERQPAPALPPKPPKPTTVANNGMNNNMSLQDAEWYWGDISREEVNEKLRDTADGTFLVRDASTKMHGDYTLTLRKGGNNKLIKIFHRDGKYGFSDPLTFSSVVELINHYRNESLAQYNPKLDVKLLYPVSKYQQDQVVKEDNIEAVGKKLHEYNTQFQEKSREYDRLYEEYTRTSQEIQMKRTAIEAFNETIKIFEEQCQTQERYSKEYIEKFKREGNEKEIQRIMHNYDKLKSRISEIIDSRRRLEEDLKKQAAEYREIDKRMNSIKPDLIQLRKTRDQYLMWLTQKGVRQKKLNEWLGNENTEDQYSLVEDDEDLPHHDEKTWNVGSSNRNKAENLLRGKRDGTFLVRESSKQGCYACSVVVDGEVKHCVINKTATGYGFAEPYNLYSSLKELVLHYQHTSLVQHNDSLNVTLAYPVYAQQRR
Format: biochemical
Description: [γ-^33P]ATP (10 mCi/mL) was purchased from PerkinElmer (Waltham, Mass.). […] PI3Kδ (p110δ/p85α) was purchased from Millipore (Bedford, Mass.). ATP, MgCl2, DTT, EDTA, MOPS and CHAPS were purchased from Sigma-Aldrich (St. Louis, Mo.). Wheat Germ Agglutinin (WGA) YSi SPA Scintillation Beads was purchased from GE healthcare life sciences (Piscataway, N.J.).
The kinase reaction was conducted in polystyrene 384-well matrix white plate from Thermo Fisher Scientific in a final volume of 25 μL. Inhibitors were first diluted serially in DMSO and added to the plate wells before the addition of other reaction components. The final concentration of DMSO in the assay was 0.5%. The PI3K assays were carried out at room temperature in 20 mM MOPS, pH 6.7, 10 mM MgCl2, 5 mM DTT and CHAPS 0.03%. Reactions were initiated by the addition of ATP, the final reaction mixture consisted of 20 μM PIP2, 20 μM ATP, 0.2 μCi [γ-^33P] ATP, 4 nM PI3Kδ. […] 25 mM EDTA, 400 μM ATP. The final concentration of SPA beads was 1.0 mg/mL. After the plate sealing, plates were shaken overnight at room temperature and centrifuged at 1800 rpm for 10 minutes, the radioactivity of the product was determined by scintillation counting on Topcount (PerkinElmer). IC50 determination was performed by fitting the curve of percent control activity versus the log of the inhibitor concentration using the GraphPad Prism 3.0 software.
For `COc1c(C(C)n2nc(C)c3c(N)ncnc32)cc(Cl)c(C#N)c1C1CNC1` (single isomer, unassigned) [Example 261, 4-[1-(4-Amino-3-methyl-1H-pyrazolo[3,4-d]pyrimidin-1-yl)ethyl]-2-azetidin-3-yl-6-chloro-3-methoxybenzonitrile], the IC50 was < 10 nM. In the case of `COc1c(C(C)n2nc(C)c3c(N)ncnc32)cc(Cl)c(C#N)c1C1CN(C(N)=O)C1` (single isomer, unassigned) [Example 293, 3-{3-[1-(4-Amino-3-methyl-1H-pyrazolo[3,4-d]pyrimidin-1-yl)ethyl]-5-chloro-6-cyano-2-methoxyphenyl}azetidine-1-carboxamide], the IC50 is reported as < 10 nM. For `COc1c(C(C)n2nc(C)c3c(N)ncnc32)cc(Cl)c(C)c1C1CN([C@H](C)C(=O)N(C)C)C1` (stereo partly drawn) [Example 159, (2R)-2-(3-{3-[1-(4-Amino-3-methyl-1H-pyrazolo[3,4-d]pyrimidin-1-yl)ethyl]-5-chloro-2-methoxy-6-methylphenyl}azetidin-1-yl)-N,N-dimethylpropanamide], the IC50 was < 10 nM. `CCOc1c(C(C)n2nc(C)c3c(N)ncnc32)cc(Cl)c(C#N)c1C1CNC(=O)O1` (stereo not drawn) [323 (1st peak), 4-[1-(4-amino-3-methyl-1H-pyrazolo[3,4-d]pyrimidin-1-yl)ethyl]-6-chloro-3-ethoxy-2-(2-oxo-1,3-oxazolidin-5-yl)benzonitrile] was tested, and the IC50 was < 10 nM. With `COc1c(C(C)n2nc(C)c3c(N)ncnc32)cc(Cl)c(C)c1C1CN(C[C@@H](O)C(F)(F)F)C1` (single isomer, unassigned) [Example 115] the IC50 was < 10 nM. For `CCOc1c(C(C)n2nc(C)c3c(N)ncnc32)cc(Cl)c(C)c1C1CNC(=O)C1` (stereo not shown) [Example 310, 4-{3-[1-(4-amino-3-methyl-1H-pyrazolo[3,4-d]pyrimidin-1-yl)ethyl]-5-chloro-2-ethoxy-6-methylphenyl}pyrrolidin-2-one], the IC50 was < 10 nM. In the case of `COc1c(C(C)n2nc(C)c3c(N)ncnc32)cc(C)c(C#N)c1C1CN(C[C@H](C)O)C1` (single isomer, unassigned) [Example 315], the IC50 is reported as < 10 nM. `COCCN1CC(c2c(C)c(Cl)cc(C(C)n3nc(C)c4c(N)ncnc43)c2OC)C1` (racemic) [Example 9, 1-(1-{5-Chloro-2-methoxy-3-[1-(2-methoxyethyl)azetidin-3-yl]-4-methylphenyl}ethyl)-3-methyl-1H-pyrazolo[3,4-d]pyrimidin-4-amine] was tested, and the IC50 was < 10 nM. `COc1c(C(C)n2nc(C)c3c(N)ncnc32)cc(Cl)c(C)c1-c1cnc(N)nc1` (single isomer, unassigned) [Example 169, 1-(1-(3-(2-aminopyrimidin-5-yl)-5-chloro-2-methoxy-4-methylphenyl)ethyl)-3-methyl-1H-pyrazolo[3,4-d]pyrimidin-4-amine] was tested, and the IC50 was < 10 nM. `COc1c(C(C)n2nc(C)c3c(N)ncnc32)cc(Cl)c(C)c1C1CN(C2(CC#N)CCC2)C1` (single isomer, unassigned) [Example 161, [1-(3-{3-[1-(4-Amino-3-methyl-1H-pyrazolo[3,4-d]pyrimidin-1-yl)ethyl]-5-chloro-2-methoxy-6-methylphenyl}azetidin-1-yl)cyclobutyl]acetonitrile] was tested, and the IC50 was < 10 nM. `CCOc1c(C(C)n2nc(C)c3c(N)ncnc32)cc(Cl)c(C#N)c1C1CN(C[C@H](C)O)C1` (stereo partly drawn) [Example 220, 4-[1-(4-Amino-3-methyl-1H-pyrazolo[3,4-d]pyrimidin-1-yl)ethyl]-6-chloro-3-ethoxy-2-{1-[(2S)-2-hydroxypropyl]azetidin-3-yl}benzonitrile] was tested, and the IC50 was < 10 nM. For `COc1c(C(C)n2nc(C)c3c(N)ncnc32)cc(Cl)c(C)c1-c1ccc(NCCO)nc1` (single isomer, unassigned) [Example 184, 2-[(5-{3-[1-(4-Amino-3-methyl-1H-pyrazolo[3,4-d]pyrimidin-1-yl)ethyl]-5-chloro-2-methoxy-6-methylphenyl}pyridin-2-yl)amino]ethanol], the IC50 was < 10 nM. `CCC(C)N1CC(c2c(C)c(Cl)cc(C(C)n3nc(C)c4c(N)ncnc43)c2OC)C1` (stereo not shown) [Example 8, 1-{1-[3-(1-sec-butylazetidin-3-yl)-5-chloro-2-methoxy-4-methylphenyl]ethyl}-3-methyl-1H-pyrazolo[3,4-d]pyrimidin-4-amine] was tested, and the IC50 was < 10 nM. In the case of `COc1c(C(C)n2nc(C)c3c(N)ncnc32)cc(Cl)c(C#N)c1C1CN(C(C)CO)C1` (stereo not shown) [Example 272, 4-[1-(4-amino-3-methyl-1H-pyrazolo[3,4-d]pyrimidin-1-yl)ethyl]-6-chloro-2-[1-(2-hydroxy-1-methylethyl)azetidin-3-yl]-3-methoxybenzonitrile], the IC50 is reported as < 10 nM. In the case of `CCOc1c(C(C)n2nc(C)c3c(N)ncnc32)cc(Cl)c(C#N)c1C1CN(C(C)(C)C(N)=O)C1` (single isomer, unassigned) [Example 239, 2-{3-(3-[1-(4-Amino-3-methyl-1H-pyrazolo[3,4-d]pyrimidin-1-yl)ethyl]-5-chloro-6-cyano-2-ethoxyphenyl}azetidin-1-yl)-2-methylpropan amide], the IC50 is reported as < 10 nM. For `CCN1CC(c2c(Cl)c(Cl)cc(C(C)n3nc(C)c4c(N)ncnc43)c2OC)C1` (stereo not drawn) [298 (1st peak), 1-{1-[4,5-Dichloro-3-(1-ethylazetidin-3-yl)-2-methoxyphenyl]ethyl}-3-methyl-1H-pyrazolo[3,4-d]pyrimidin-4-amine], the IC50 was < 10 nM. With “1-(1-(5-chloro-2-methoxy-4-methyl-3-(pyrimidin-5-yl)phenyl)ethyl)-3-methyl-1H-pyrazolo[3,4-d]pyrimidin-4-amine [Example 168]” the IC50 was < 10 nM. `CCOc1c(C(C)n2nc(C)c3c(N)ncnc32)cc(Cl)c(C)c1C1CN(C(=O)[C@H](C)O)C1` (stereo partly drawn) [Example 99, (2S)-1-(3-{3-[1-(4-Amino-3-methyl-1H-pyrazolo[3,4-d]pyrimidin-1-yl)ethyl]-5-chloro-2-ethoxy-6-methylphenyl}azetidin-1-yl)-1-oxopropan-2-ol trifluoroacetate] was tested, and the IC50 was < 10 nM. In the case of `COc1c(C(C)n2nc(C)c3c(N)ncnc32)cc(Cl)c(C)c1-c1cnn(CCO)c1` (single isomer, unassigned) [20 (1st peak), 2-(4-(3-(1-(4-Amino-3-methyl-1H-pyrazolo[3,4-d]pyrimidin-1-yl)ethyl)-5-chloro-2-methoxy-6-methylphenyl)-1H-pyrazol-1-yl)ethanol], the IC50 is reported as < 10 nM. With `COc1c(C(C)n2nc(C)c3c(N)ncnc32)cc(Cl)c(C)c1-c1ccc(C(=O)NCCO)nc1` (stereo not shown) [Example 23, 5-(3-(1-(4-amino-3-methyl-1H-pyrazolo[3,4-d]pyrimidin-1-yl)ethyl)-5-chloro-2-methoxy-6-methylphenyl)-N-(2-hydroxyethyl)picolinamide trifluoroacetate] the IC50 was < 10 nM. In the case of `CCOc1c(C(C)n2nc(C)c3c(N)ncnc32)cc(Cl)c(F)c1C1COC(=O)N1` (single isomer, unassigned) [Example 354, 4-{3-[1-(4-amino-3-methyl-1H-pyrazolo[3,4-d]pyrimidin-1-yl)ethyl]-5-chloro-2-ethoxy-6-fluorophenyl}-1,3-oxazolidin-2-one], the IC50 is reported as < 10 nM. For `COc1c(C(C)n2nc(C)c3c(N)ncnc32)cc(Cl)c(C#N)c1C1CN(C)C1` (single isomer, unassigned) [Example 262, 4-[1-(4-Amino-3-methyl-1H-pyrazolo[3,4-d]pyrimidin-1-yl)ethyl]-6-chloro-3-methoxy-2-(1-methylazetidin-3-yl)benzonitrile], the IC50 was < 10 nM.
